How the values were obtained:
CYP2D6 = target: T1, CYP2D6 (Homo sapiens, UniProt P10635); experiment: CYP inhibition assay, human liver microsomes, dextromethorphan O-demethylase; format: in vitro ADME; conditions: pooled human liver microsomes, read-out: CYP IC50 2D6
T1 construct: 0.2 mg/ml pooled human liver microsomes; from tissue; host or cells: pooled human liver microsomes
Procedure: (§1) Inhibition of cytochromes P450 (CYPs) 2C9, 2D6 and 3A4 was assessed using human liver microsomes and CYP-selective substrate metabolism reactions. 50 μl incubations were made up containing (finally) 0.2 mg/ml pooled human liver microsomes, 5 μM substrate (diclofenac for CYP2C9 [4′hydroxylase], dextromethorphan for CYP2D6 [O-demethylase] or midazolam for CYP3A4 [1′hydroxylase]), 0.25 μL DMSO containing test inhibitor and NADPH regenerating system. Test inhibitor concentrations of 50, 16.7, 5.6, 1.9, 0.6 and 0.2 μM were assessed in singlicate. Incubations were prewarmed to 37° C. for 10 minutes before initiation by addition of NADPH regenerating system. Incubations were quenched after 5 minutes (20 minutes for dextromethorphan) by addition of 50 μl cold acetonitrile containing 20 ng/ml 4-OH-diclofenac-13C6, 20 ng/mL dextrorphan-D3 and 20 ng/mL 1-OH-midazolam-D4. Quenched incubates were stored at −20° C. for at least 1 hour before centrifugation (20,000×g, 20 minutes). Supernatants were removed and diluted 1:1 with water prior to analysis using a RapidFire sample injector system and API4000 mass spectrometer. Peak areas for substrate, metabolite and stable-labelled metabolite standard were determined using MS/MS. The peak area ratios between the metabolite generated by the enzymatic reaction and the internal standard were used in subsequent calculations. The percentage of (DMSO) control activity was calculated for each incubate and IC50 values estimated by non-linear regression. Sulfaphenazole, quinidine or ketoconazole were tested in each CYP2C9, CYP2D6 or CYP3A4 inhibition experiment, respectively, to ensure assay sensitivity and reproducibility. (Validated assays for human cytochrome P450 activities, R. L. Walsky and R. S. Obach, Drug Metabolism and Disposition 32: 647-660, 2004. and S. Fowler and H. Zhang, The AAPS Journal, Vol. 10, No. 2, 410-424, 2008.)

[1] = target: T2, cathepsin D (from human liver) (Homo sapiens, UniProt P07339); experiment: Cathepsin D fluorescent substrate kinetic assay; format: biochemical; conditions: pH 5.5, substrate […]-MR121
T2 construct: cathepsin D (from human liver, Calbiochem); purchased Calbiochem; host or cells: purified from human liver
Excerpt: Cathepsin D and Cathepsin E Fluorescent Substrate Kinetic Assays
The MR121 fluorescence assays described below are based on the fact that MR121 forms a non-fluorescent ground state complex with tryptophan. In solution this formation occurs at millimolar concentrations of tryptophan. The mechanism can be used to design a generic biochemical assay for proteases. A substrate peptide is labeled at the N-terminus with tryptophan and at the C-terminus with the fluorophore MR121 (for cathepsin D the 10 amino acid peptide […]-MR121 was used; for cathepsin E, MR121-[…] was used). In absence of protease activity, the substrates remain intact and the MR121 fluorescence is reduced by the high local Trp-concentration. If the substrates are cleaved by the enzymes the MR121 fluorescence is recovered.
The fluorescent substrate cathepsin D and cathepsin E kinetic assays were performed at room temperature in 384-well microtiter plates (black with clear flat bottom, non binding surface plates from Corning) in a final volume of 51 μl. […] The enzymatic reaction was followed in a plate: vision reader (Perkin Elmer) (excitation wavelength: 630 nm; emission: 695 nm) for at least 30 minutes in a kinetic measurement detecting an increase of MR121 fluorescence during the reaction time. […]

CYP3A4 = target: T3, CYP3A4 (Homo sapiens, UniProt P08684); experiment: CYP inhibition assay, human liver microsomes, midazolam 1′hydroxylase; format: in vitro ADME; conditions: pooled human liver microsomes, read-out: CYP IC50 3A4
T3 construct: 0.2 mg/ml pooled human liver microsomes; from tissue; host or cells: pooled human liver microsomes
Procedure: as §1

BACE1 = target: T4, BACE1 (Homo sapiens, UniProt P56817); experiment: Cellular Aβ-lowering assay (Aβ40 ELISA, HEK293 cells expressing human APP695); format: cell-based; conditions: HEK293 cells stably expressing human APP695; Aβ40 in supernatant after 18-20 hrs
T4 construct: Human HEK293 cells which are stably transfected with a vector expressing a cDNA of the human APP wt gene (APP695); endogenous in cells; host or cells: HEK293 (human), stably transfected with human APP695 wt only
Procedure: Cellular Aβ-Lowering Assay:
Human HEK293 cells which are stably transfected with a vector expressing a cDNA of the human APP wt gene (APP695) were used to assess the potency of the compounds in a cellular assay. The cells were seeded in 96-well microtiter plates in cell culture medium (Iscove, plus 10% (v/v) fetal bovine serum, glutamine, penicillin/streptomycin) to about 80% confluence and the compounds were added at a 10× concentration in 1/10 volume of medium without FCS containing 8% DMSO (final concentration of DMSO was kept at 0.8% v/v). After 18-20 hrs incubation at 37° C. and 5% CO2 in a humidified incubator the culture supernatant was harvested for the determination of Aβ40 concentrations. 96well ELISA plates (e.g., Nunc MaxiSorb) were coated with monoclonal antibody which specifically recognize the C-terminal end of Aβ40 (Brockhaus et al., NeuroReport 9, 1481-1486; 1998). After blocking of non-specific binding sites with e.g. 1% BSA and washing, the culture supernatants were added in suitable dilutions together with a horseradish peroxidase-coupled Aβ detection antibody (e.g., antibody 4G8, Senetek, Maryland Heights, Mo.) and incubated for 5 to 7 hrs. Subsequently the wells of the microtiter plate were washed extensively with Tris-buffered saline containing 0.05% Tween 20 and the assay was developed with tetramethylbenzidine/H2O2 in citric acid buffer. After stopping the reaction with one volume 1 N H2SO4 the reaction was measured in an ELISA reader at 450 nm wavelength. The concentrations of Aβ in the culture supernatants were calculated from a standard curve obtained with known amounts of pure Aβ peptide.

CYP2C9 = target: T5, CYP2C9 (Homo sapiens, UniProt P11712); experiment: CYP inhibition assay, human liver microsomes, diclofenac 4′hydroxylase; format: in vitro ADME; conditions: pooled human liver microsomes, read-out: CYP IC50 2C9
T5 construct: 0.2 mg/ml pooled human liver microsomes; from tissue; host or cells: pooled human liver microsomes
Procedure: as §1

T4 sequence (P56817 46-501): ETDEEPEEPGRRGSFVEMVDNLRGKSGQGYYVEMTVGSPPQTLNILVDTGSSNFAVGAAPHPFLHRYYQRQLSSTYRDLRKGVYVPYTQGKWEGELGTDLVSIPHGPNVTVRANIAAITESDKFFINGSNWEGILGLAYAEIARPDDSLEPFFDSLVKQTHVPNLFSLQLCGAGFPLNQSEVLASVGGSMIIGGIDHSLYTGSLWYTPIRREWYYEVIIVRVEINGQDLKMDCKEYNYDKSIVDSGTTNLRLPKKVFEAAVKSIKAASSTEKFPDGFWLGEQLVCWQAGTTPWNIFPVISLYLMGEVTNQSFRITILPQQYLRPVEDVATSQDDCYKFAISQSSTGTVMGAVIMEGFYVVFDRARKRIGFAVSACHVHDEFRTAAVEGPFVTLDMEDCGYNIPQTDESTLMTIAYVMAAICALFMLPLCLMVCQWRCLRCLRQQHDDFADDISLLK
T2 sequence (P07339 65-162 limits assumed): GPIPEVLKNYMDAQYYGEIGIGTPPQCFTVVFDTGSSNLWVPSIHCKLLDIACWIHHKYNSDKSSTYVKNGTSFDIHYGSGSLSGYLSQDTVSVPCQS
T2 sequence (P07339 169-412 limits assumed): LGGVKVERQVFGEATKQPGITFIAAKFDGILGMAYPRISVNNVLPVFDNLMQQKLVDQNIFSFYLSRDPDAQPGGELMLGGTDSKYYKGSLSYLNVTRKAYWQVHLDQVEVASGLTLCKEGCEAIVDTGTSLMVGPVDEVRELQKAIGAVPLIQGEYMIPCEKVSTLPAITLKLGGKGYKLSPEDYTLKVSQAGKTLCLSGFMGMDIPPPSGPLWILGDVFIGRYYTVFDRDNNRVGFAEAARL
T1 sequence (P10635 whole entry): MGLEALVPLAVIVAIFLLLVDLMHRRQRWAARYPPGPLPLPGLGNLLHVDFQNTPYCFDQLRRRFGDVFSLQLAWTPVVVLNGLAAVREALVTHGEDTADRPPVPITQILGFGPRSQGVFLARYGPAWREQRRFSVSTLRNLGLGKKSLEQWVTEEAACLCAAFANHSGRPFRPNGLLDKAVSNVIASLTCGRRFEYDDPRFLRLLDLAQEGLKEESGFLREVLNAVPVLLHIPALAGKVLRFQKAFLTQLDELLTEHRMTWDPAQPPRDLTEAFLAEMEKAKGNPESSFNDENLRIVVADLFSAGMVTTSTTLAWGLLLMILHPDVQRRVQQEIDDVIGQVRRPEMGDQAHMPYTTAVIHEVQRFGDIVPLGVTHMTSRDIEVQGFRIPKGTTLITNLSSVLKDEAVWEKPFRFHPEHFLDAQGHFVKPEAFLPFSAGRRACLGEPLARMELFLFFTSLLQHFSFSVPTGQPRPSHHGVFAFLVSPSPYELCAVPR
T3 sequence (P08684 whole entry): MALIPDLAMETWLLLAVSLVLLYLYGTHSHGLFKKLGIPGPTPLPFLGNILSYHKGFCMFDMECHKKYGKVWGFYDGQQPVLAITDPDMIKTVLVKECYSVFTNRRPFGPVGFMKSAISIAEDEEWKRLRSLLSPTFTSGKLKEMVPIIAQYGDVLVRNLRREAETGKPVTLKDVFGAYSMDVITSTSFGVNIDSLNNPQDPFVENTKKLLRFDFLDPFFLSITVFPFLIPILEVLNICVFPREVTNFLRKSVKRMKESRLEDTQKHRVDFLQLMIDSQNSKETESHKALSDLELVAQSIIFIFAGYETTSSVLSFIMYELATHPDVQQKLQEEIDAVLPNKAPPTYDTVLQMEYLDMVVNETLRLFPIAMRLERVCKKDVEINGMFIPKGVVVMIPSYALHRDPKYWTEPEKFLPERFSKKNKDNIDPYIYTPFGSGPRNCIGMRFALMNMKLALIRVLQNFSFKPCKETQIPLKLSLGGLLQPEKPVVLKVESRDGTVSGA
T5 sequence (P11712 whole entry): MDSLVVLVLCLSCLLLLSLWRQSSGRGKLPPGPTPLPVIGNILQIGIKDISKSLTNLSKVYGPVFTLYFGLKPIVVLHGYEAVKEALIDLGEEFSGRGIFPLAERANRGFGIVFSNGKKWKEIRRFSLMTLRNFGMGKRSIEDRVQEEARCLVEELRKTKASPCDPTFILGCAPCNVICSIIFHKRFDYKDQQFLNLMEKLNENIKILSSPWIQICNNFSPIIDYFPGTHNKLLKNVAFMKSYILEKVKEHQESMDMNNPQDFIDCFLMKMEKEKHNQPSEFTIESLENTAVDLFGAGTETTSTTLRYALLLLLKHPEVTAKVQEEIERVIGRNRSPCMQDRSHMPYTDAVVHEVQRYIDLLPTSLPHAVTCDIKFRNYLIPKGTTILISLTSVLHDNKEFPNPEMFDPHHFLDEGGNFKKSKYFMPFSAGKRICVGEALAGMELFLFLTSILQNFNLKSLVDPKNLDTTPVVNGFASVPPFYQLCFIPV

CC1(c2cccc(-c3cc(Cl)cc(Cl)c3)c2)COCC(N)=N1 (stereo not shown) [Example 32, 5-(3′,5′-Dichloro-biphenyl-3-yl)-5-methyl-5,6-dihydro-2H-[1,4]oxazin-3-ylamine]
IC50 (CYP2D6): > 50 µM | IC50 [1]: 2.8 µM | IC50 (CYP3A4): > 50 µM | IC50 (BACE1): 1.53 µM | IC50 (CYP2C9): 3.7 µM

CC1(c2cc(-c3cncnc3)ccc2F)COCC(N)=N1 (stereo not shown) [Example 36, 5-(2-Fluoro-5-pyrimidin-5-yl-phenyl)-5-methyl-5,6-dihydro-2H-[1,4]oxazin-3-ylamine]
IC50 (CYP2D6): 41 µM | IC50 [1]: 34 µM | IC50 (CYP3A4): > 50 µM | IC50 (BACE1): 0.98 µM | IC50 (CYP2C9): > 50 µM

Source: patent US8399459B2, “1,4 oxazines as BACE1 and/or BACE2 inhibitors” (Hoffmann-La Roche Inc., priority 2011, dated 2013)
